Data on 10 compounds can be found in PubChem BioAssay (NCI).

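Following 48 hours of exposure in 96-well plates, responses at five concentrations were used to interpolate endpoints linearly. GI50: concentration for 50% inhibition of growth. Definition used: TGI = concentration required for complete inhibition of growth.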

Test systems include A498 renal; SK-OV-3 ovarian; CCRF-CEM leukemia; EKVX NSCLC; HL-60(TB) leukemia; A549 NSCLC; NCI-H460 lung; NCI-H522 lung; SK-MEL-5 melanoma; LXFL 529 NSCLC.
Assay in all cases: DTP human tumour cell line panel, 48 h

Usually GI50 stands for the concentration that inhibits growth by half. By TGI is commonly meant the concentration giving total growth inhibition. Read a high TGI as lower sensitivity of the cells. For `CCC[CH2][Sn]1([CH2]CCC)[O]C(c2ccccn2)S(=O)(=O)[O]1` (centres undefined), the GI50 was 18.1 µM in the experiment with A498 renal; 16.8 µM in the experiment on SK-OV-3 ovarian; 1.54 µM in the experiment on CCRF-CEM leukemia; 2.29 µM in the experiment on EKVX NSCLC; 2.14 µM with HL-60(TB) leukemia; 20 µM in the experiment with A549 NSCLC. For the same compound, the GI50 is 16.8 µM in the experiment with NCI-H460 lung, 1.18 µM with NCI-H522 lung, 12.5 µM in the experiment with SK-MEL-5 melanoma and 1.54 µM in the experiment on LXFL 529 NSCLC. Also, the TGI in the experiment with A498 renal stood at 32.1 µM; in the experiment with SK-OV-3 ovarian it was 30.9 µM; in the experiment on CCRF-CEM leukemia, 4.19 µM; in the experiment with EKVX NSCLC, 5.61 µM; in the experiment on HL-60(TB) leukemia, 5.04 µM; in the experiment with A549 NSCLC, 34.3 µM. Further, the concentration for total growth inhibition (TGI) is 30.4 µM with NCI-H460 lung, 2.47 µM in the experiment on NCI-H522 lung, 25 µM in the experiment with SK-MEL-5 melanoma and 2.92 µM in the experiment with LXFL 529 NSCLC.

In the case of `CC1(C)CC23C(=O)N(c4ccccc4)C(=Nc4ccccc4)NC2=CC(C#N)=C(C#N)C3O1` (centres undefined), the TGI is more than 100 µM in the experiment on A498 renal; more than 100 µM in the experiment with CCRF-CEM leukemia; more than 100 µM in the experiment on EKVX NSCLC; 89.9 µM with HL-60(TB) leukemia; more than 100 µM with A549 NSCLC; more than 100 µM in the experiment with NCI-H460 lung. The TGI in the experiment with NCI-H522 lung is more than 100 µM; in the experiment with SK-MEL-5 melanoma, 95.5 µM; with LXFL 529 NSCLC, more than 100 µM.

`CC1=CC2=C(OCO1)C(=O)c1ccccc1C2=O`: the TGI in the experiment with A498 renal was 29.5 µM; in the experiment on SK-OV-3 ovarian, 48.9 µM; in the experiment on CCRF-CEM leukemia it was 45.7 µM; in the experiment on EKVX NSCLC, more than 100 µM; in the experiment on HL-60(TB) leukemia, 23.1 µM; in the experiment with A549 NSCLC, 38.9 µM. In addition, the TGI with NCI-H460 lung stood at 19.1 µM; in the experiment with NCI-H522 lung, 8.87 µM; in the experiment with SK-MEL-5 melanoma, 5.27 µM; in the experiment on LXFL 529 NSCLC, 52.8 µM.

As for `CC(=O)CC(=O)N(CCN(C(=O)CC(C)=O)c1ccccc1)c1ccccc1`, the total growth inhibition concentration (TGI) with A498 renal, with SK-OV-3 ovarian, in the experiment on CCRF-CEM leukemia, in the experiment with EKVX NSCLC, in the experiment with HL-60(TB) leukemia and in the experiment with A549 NSCLC was more than 100 µM each time. For the same compound, the TGI with NCI-H460 lung, in the experiment on NCI-H522 lung, with SK-MEL-5 melanoma and in the experiment with LXFL 529 NSCLC was more than 100 µM in each case.

For `C[C@]12CCC3c4ccc(OC(=O)c5ccccc5)cc4CC[C@H]3C1CC[C@@H]2OC(=O)C12OC1CCC2=O` (some centres undefined), the concentration for total growth inhibition (TGI) was determined as 14.2 µM in the experiment with A498 renal; 33.4 µM in the experiment with SK-OV-3 ovarian; 5.39 µM with CCRF-CEM leukemia; 15 µM in the experiment on EKVX NSCLC; 4.56 µM with HL-60(TB) leukemia; 10.3 µM in the experiment on A549 NSCLC. Also, the concentration for total growth inhibition (TGI) in the experiment on NCI-H460 lung worked out at 8.3 µM; in the experiment with NCI-H522 lung, 10.8 µM; in the experiment on SK-MEL-5 melanoma it was 9.49 µM; in the experiment on LXFL 529 NSCLC it was 3.76 µM.

For `C/C(=N\O)c1sc(-n2nc(-c3ccccc3)cc2-c2ccccc2)nc1C`, the total growth inhibition concentration (TGI) is more than 31.6 µM in the experiment on A498 renal; 25.6 µM with CCRF-CEM leukemia; more than 31.6 µM in the experiment with EKVX NSCLC; 23 µM in the experiment with HL-60(TB) leukemia; 25.3 µM in the experiment on A549 NSCLC; 21.6 µM in the experiment with NCI-H460 lung. The TGI was found to be 17 µM in the experiment with NCI-H522 lung, 17.3 µM in the experiment on SK-MEL-5 melanoma and 16.3 µM in the experiment with LXFL 529 NSCLC.

On to `Cc1cc(C)c(C(=O)O)c(N)c1O`, for which the TGI in the experiment on A498 renal, with SK-OV-3 ovarian, with CCRF-CEM leukemia, in the experiment with EKVX NSCLC, in the experiment with HL-60(TB) leukemia and in the experiment on A549 NSCLC was more than 100 µM throughout. Moreover, the TGI in the experiment with NCI-H522 lung, with SK-MEL-5 melanoma and in the experiment on LXFL 529 NSCLC was more than 100 µM throughout.

As for `O=C1c2ccccc2C(=O)N1/N=C\c1ccc(Br)cc1`, the GI50 with A498 renal, in the experiment with CCRF-CEM leukemia, in the experiment with EKVX NSCLC, in the experiment on HL-60(TB) leukemia, in the experiment on A549 NSCLC and in the experiment on SK-MEL-5 melanoma was more than 100 µM each time. The GI50 in the experiment with LXFL 529 NSCLC was more than 100 µM. Further, the total growth inhibition concentration (TGI) in the experiment with A498 renal, in the experiment on SK-OV-3 ovarian, in the experiment with CCRF-CEM leukemia, with EKVX NSCLC, in the experiment on HL-60(TB) leukemia and with A549 NSCLC was more than 100 µM each time. Further, the TGI in the experiment with NCI-H460 lung was more than 10 µM; in the experiment with NCI-H522 lung, more than 100 µM; in the experiment on SK-MEL-5 melanoma, more than 100 µM; with LXFL 529 NSCLC, more than 100 µM.

Regarding `CCCC(OCC)(OCC)OCC`, the TGI in the experiment with A498 renal, in the experiment on SK-OV-3 ovarian, in the experiment on CCRF-CEM leukemia, in the experiment on EKVX NSCLC, with HL-60(TB) leukemia and in the experiment with A549 NSCLC was more than 100 µM in each case. Moreover, the concentration for total growth inhibition (TGI) with NCI-H460 lung, in the experiment on NCI-H522 lung, in the experiment on SK-MEL-5 melanoma and in the experiment with LXFL 529 NSCLC was more than 100 µM throughout.

As for `CCCCCCCCCOC(=S)NC`, the concentration for total growth inhibition (TGI) in the experiment with A498 renal is 48.8 µM; in the experiment with SK-OV-3 ovarian, 45.7 µM; in the experiment on CCRF-CEM leukemia, 47.7 µM; in the experiment with EKVX NSCLC, 51.6 µM; in the experiment with HL-60(TB) leukemia it was 34.1 µM; in the experiment on A549 NSCLC, 65.1 µM. The concentration for total growth inhibition (TGI) with NCI-H460 lung was 36.3 µM; in the experiment with NCI-H522 lung it was 31.2 µM; in the experiment with SK-MEL-5 melanoma, 39.6 µM; in the experiment on LXFL 529 NSCLC it was 34.8 µM.
